# Results: PMC3132048, “Treatment of experimental adjuvant arthritis with a novel folate receptor-targeted folic acid-aminopterin conjugate” (Arthritis Research & Therapy, 2011)
# Marks after values point to notes of the source that are not given here.
# Legend:
# [1] = Plasma pharmacokinetics after single subcutaneous dose; type: in vivo, rat
# Method: Female Lewis rats with jugular vein catheters (Harlan Sprague Dawley) were used to assess the plasma pharmacokinetics of EC0746 and unconjugated AMT. The animals were divided into two main groups, one given a single dose of EC0746 s.c. and the second a single dose of AMT s.c., both at 500 nmol/kg. Whole blood samples (300 μl) were collected from three animals per time point at the following time points: 1 minute, 10 minutes, 30 minutes, 1 hour, 2 hours, 3 hours, 4 hours, and 8 hours after injection. The blood samples were placed into anticoagulant tubes containing 1.7 mg/ml K3EDTA and 0.35 mg/ml N-maleoyl-β-alanine (0.35 mg/ml) in a 0.15% acetic acid solution. Plasma samples were obtained by centrifugation for 3 minutes at ~2,000 × g and stored at -80°C. The amounts of EC0746 and AMT in the plasma and the two primary metabolites of EC0746 (AMT and AMT hydrazide) were determined by liquid chromatography/mass spectrometry/mass spectrometry.
# [2] = tested on: adjuvant-induced arthritis; test: Rat adjuvant-induced arthritis (AIA) model; type: in vivo; conditions: for Inhibition in paw edema (%): paw weight day 24; for Body weight change (%): day 24 relative to day 10
# Method: The rats were then inoculated intradermally (at the base of tail) with 0.5 mg heat-killed M. butyricum (BD Diagnostic Systems) in 100 μl light mineral oil (Sigma-Aldrich, St Louis, MO, USA). […] For each study, two or three rats from the same colony were not induced for arthritis and were used as healthy controls.
# Unless noted otherwise, all drug treatments started on day 10 after arthritis induction and lasted for two consecutive weeks with biweekly (BIW, Mondays and Thursdays) or once-weekly (QW, Mondays) dosing regimens.
# EC0746 was given subcutaneously (s.c.) in a dosing range of 25 to 1,000 nmol/kg (QW or BIW); MTX was given s.c. or orally at 250 nmol/kg (BIW) or 1,650 nmol/kg (QW); and etanercept (10 mg/kg) was given s.c. once every 3 days for a 12-day span. The QW MTX dosing regimen was to mimic MTX administration in humans, and this particular dose of 1,650 nmol/kg per week (that is, 0.75 mg/kg per week) was reportedly active as an intraperitoneal agent in the AIA model. To distinguish the anti-inflammatory mechanisms of EC0746 and MTX in vivo, a therapeutically irrelevant folate-containing competitor (EC0923, molecular weight 672) was used in 500-fold molar excess to block the activities of EC0746 and MTX at 250 nmol/kg (BIW).
# Formalin-fixed hind paws were examined by a board-certified veterinary radiologist who had no knowledge of the study groups. Specific criteria were used to establish a numerical grade of severity for each radiographic change: increased soft tissue volume (0 to 4), narrowing or widening of joint spaces (0 to 5), subchondral erosion (0 to 3), periosteal reaction (0 to 4), osteolysis (0 to 4), subluxation (0 to 3), and degenerative joint changes (0 to 3). Scores are limited to the tarsus, and the maximum possible score per foot was 26 [39]. The histopathological analysis was also performed in a blind fashion by an independent contract laboratory (Bolder BioPATH Inc., Boulder, CO, USA). The arthritic ankles were scored on a scale of 0 to 5 for inflammation, bone resorption, pannus formation, and cartilage damage, with a maximal histology score of 20 per foot.
# [3] = tested on: cytokine/chemokine release by rat TG-macs; test: Rat cytokine array analysis after LPS/IFNγ co-stimulation; type: cell-based; conditions: 100 nM, 2-hour pulse, 70-hour chase, LPS 5 μg/ml plus IFNγ 100 ng/ml last 24 hours
# Method: This analysis was performed on rat TG-macs to compare EC0746 against AMT and MTX for their abilities to inhibit cytokine production after LPS/IFNγ co-stimulation. Using our standard condition of 2-hour pulse plus a 70-hour chase period, rat TG-macs (harvested the day before) were given vehicle (media only), EC0746 (100 nM), EC0746 (100 nM) plus 100-fold molar excess of FA (10 μM), or FA alone (10 μM). For unconjugated base drugs, 100 nM AMT and MTX were present continuously for the entire 72-hour incubation period. Twenty-four hours prior to the end of incubation, LPS (5 μg/ml) and IFNγ (100 ng/ml) were added to the cells to stimulate cytokine production. The presence of cytokines/chemokines in the culture media was detected using a rat cytokine antibody array kit (R&D Systems) capable of detecting 29 analytes in duplicate spots. The total pixel intensity for each spot in the array was quantitated using the NIH ImageJ software, subtracted from the background, and averaged for each analyte.
# [4] = preliminary study, 500 nmol/kg s.c. biweekly, low starting arthritis
# [5] = preliminary study, 500 nmol/kg s.c. biweekly, more established disease
# [6] = s.c., 25 nmol/kg biweekly from day 10
# [7] = s.c., 100 nmol/kg biweekly from day 10
# [8] = s.c., 250 nmol/kg biweekly from day 10
# [9] = s.c., 250 nmol/kg biweekly plus 500-fold excess EC0923
# [10] = s.c., 250 nmol/kg biweekly, alone
# [11] = s.c., 500 nmol/kg biweekly from day 10
# [12] = s.c., 1,000 nmol/kg once weekly
smiles,measurement,setting,value
Nc1nc(N)c2nc(CNc3ccc(C(=O)N[C@@H](CCC(=O)NNC(=O)OCCSSC[C@H](NC(=O)[C@H](CCC(=O)NC[C@H](O)[C@@H](O)[C@H](O)[C@H](O)CO)NC(=O)[C@H](CCC(=O)O)NC(=O)[C@H](CCC(=O)NC[C@H](O)[C@@H](O)[C@H](O)[C@H](O)CO)NC(=O)[C@H](CCC(=O)O)NC(=O)[C@H](CCC(=O)NC[C@H](O)[C@@H](O)[C@H](O)[C@H](O)CO)NC(=O)CC[C@H](NC(=O)c4ccc(NCc5cnc6nc(N)[nH]c(=O)c6n5)cc4)C(=O)O)C(=O)O)C(=O)O)cc3)cnc2n1 [EC0746],"Active drug exposure/release (AMT plus AMT hydrazide) detected in plasma, based on AUC","[1]; EC0746 500 nmol/kg s.c., 8-hour collection period",~ 18%
same,Area under the curve,"[1]; after single s.c. dose of EC0746 500 nmol/kg, 8-hour collection, analyte = label",32.5 nmol·min/mL
same,Elimination half-life,"[1]; after single s.c. dose of EC0746 500 nmol/kg, analyte = label",~ 35 minutes
same,Improvement in paw edema (percentage increase in paw weight),[2]; [4],~ 10 fold
same,Improvement in splenomegaly (percentage increase in spleen weight),[2]; [4],threefold
same,Arthritis score maintained throughout study,"[2]; preliminary study, 500 nmol/kg s.c. biweekly, mean starting arthritis score ~0 on day 10, score max 16",~ 1
same,Maximum reduction in arthritic scores,"[2]; preliminary study, 500 nmol/kg s.c. biweekly, mean starting arthritis score ~2 (established disease)",~ 50%
same,Improvement in paw edema (percentage increase in paw weight),[2]; [5],~ 2.5 fold
same,Improvement in splenomegaly (percentage increase in spleen weight),[2]; [5],twofold
same,Splenomegaly (percentage increase in spleen weight relative to healthy rats),[2]; [6],73 ± 8^e %
same,Inhibition in paw edema (%),[2]; [6],0 ± 25^d %
same,Body weight change (%),"[2]; s.c., 25 nmol/kg biweekly",-17 ± 1%
same,Splenomegaly (percentage increase in spleen weight relative to healthy rats),[2]; [7],52 ± 13^e %
same,Inhibition in paw edema (%),[2]; [7],35 ± 11^d %
same,Body weight change (%),"[2]; s.c., 100 nmol/kg biweekly",-14 ± 1%
same,Animals with no lesions (histopathology of ankle),"[2]; s.c., 250 nmol/kg biweekly",three out of five
same,Decrease in summed histology scores,"[2]; s.c., 250 nmol/kg biweekly",94%
same,Reduction in dorsal to ventral paw thickness,"[2]; s.c., 250 nmol/kg biweekly",94%
same,Splenomegaly (percentage increase in spleen weight relative to healthy rats),[2]; [8],25 ± 6^e %
same,Inhibition in paw edema (%),[2]; [8],91 ± 4^d %
same,Decrease in inflammation score (histology),[2]; [9],24%
same,Decrease in summed histology scores,[2]; [9],~ 19%
same,Reduction in dorsal to ventral paw thickness,[2]; [9],22%
same,Anti-arthritic activity with co-administered EC0923,"[2]; s.c., 250 nmol/kg biweekly plus 500-fold molar excess EC0923 (125 μmol/kg), all clinical parameters",nearly completely blocked
same,Radiographic analysis of arthritic paws,"[2]; s.c., 250 nmol/kg biweekly plus EC0923 125 μmol/kg",significant joint erosions
same,"Anti-arthritic activity (arthritis score, body weight, paw and spleen weights)",[2]; [10],highly effective
same,Radiographic analysis of arthritic paws,[2]; [10],minimal radiographic changes
same,Body weight change (%),"[2]; s.c., 250 nmol/kg biweekly",-0.5 ± 3%
same,Improvement in splenomegaly,"[2]; s.c., 250 nmol/kg per dose biweekly, printed >3-fold to fourfold",> 3 fold
same,Splenomegaly (percentage increase in spleen weight relative to healthy rats),[2]; [11],37 ± 7%
same,Inhibition in paw edema (%),[2]; [11],91 ± 9%
same,Body weight change (%),"[2]; s.c., 500 nmol/kg biweekly",0.4 ± 4%
same,Loss of original body weight due to arthritis progression,[2]; [12],~ 7%
same,Splenomegaly (percentage increase in spleen weight relative to healthy rats),[2]; [12],39 ± 5%
same,Inhibition in paw edema (%),"[2]; s.c., 1,000 nmol/kg once weekly (days 10 and 17)",72 ± 12%
same,Body weight change (%),[2]; [12],-7 ± 3%
same,Number of released cytokines/chemokines (of ~19) showing FR-specific inhibition,[3],11
